# Measurements: patent publication US6316424A, “Sulfated phosphatidylinositols, their preparation and use of the same” (The Board of Trustees of the University of Illinois, priority 2000, dated 2001)
# Structures can show the parent of a compound that is named as a salt.
# Tests used:
# HIV-1 virus = experiment: In vitro anti-HIV activity, XTT/formazan cell viability protection (NCI, method of Gustafson et al.); assay type: cell-based, HIV-1 (human lymphoblastoid cells); settings: Human immunodeficiency virus 1, 168 h; Table 3; 7 days; PSL values normalized to SPI content
# Protocol: A number of formulations of SPI and PSLs were prepared and their in vitro anti-HIV activity determined by the National Cancer Institute at the National Institutes of Health, Bethesda, Md., using the method of Gustafson et al, J. Nat. Can. Inst., 81(16), 1254-1258 (1989). Varying concentrations of each formulation were mixed with cultured human lymphoblastoid cells, then cocultivated with host cells chronically infected with HIV-1 virus at 37° C. After 7 days, the cell culture is incubated with a mixture of tetrazolium salt XTT and phenazine methylsulfate for 4 hours. […] Formazan absorbs visible light at 450 nm. Therefore, the amount of formazan produced is a direct measurement of cell viability and, consequently, an estimate of the anti-HIV activity of each formulation. Formazan production in normal, uninfected cells is labelled as control.
# In particular, the following compositions were assayed for anti-HIV activity. The data and effective concentration (ED50), i.e., the minimum concentration that protects 50% of the cells against infection, of each composition are summarized in FIGS. 5-7 and the results summarized in Table 3. Control values were obtained by incubating lymphoblastoid cells with each formulation in the absence of HIV. […]
# [1] = Surface tension / critical micelle concentration (Fisher Scientific Surface Tensiometer); assay type: physicochemical
# Protocol: The surface activity of SPI also was determined. In this test, dilutions of SPI were prepared and the surface tension of each solution measured using a Fisher Scientific Surface Tensiometer. The critical micelle concentration (CMC) of SPI was estimated as the minimum concentration at which the surface tension remains constant. For SPI, the CMC is about 0.10 mg/mL. […] Accordingly, the addition of sulfate groups to PI alters its aqueous behavior, shifting the tendency of the phospholipid from forming vesicles to forming micelles.
Molecule,EC50 (HIV-1 virus),behavior on addition of water (in words) [1],"surface activity (in words) ([1]; surface tension measurements, compared with SPI)"
"CC(C)Nc1cccnc1N1CCN(C(=O)c2cc3cc(NS(C)(=O)=O)ccc3[nH]2)CC1 [Delaviridine, Delaviridine mesylate, reference compound]",0.031 µg/mL,–,–
phosphatidylinositol [PI],–,formation of phosphatidylinositol liposomes,no similar surface activity
